Tested on: not listed separately
Assay: Metabolic (microsomal) stability assay, human liver microsomes (HLM)
Assay type: in vitro ADME
Conditions: 1 μM test compound, predicted clearance as percent of liver blood flow
Protocol: The metabolic degradation of the test compound is assayed at 37° C. with pooled liver microsomes (mouse (MLM), rat (RLM) or human (HLM)). The final incubation volume of 48 μL per time point contains TRIS buffer (pH 7.5; 0.1 M), magnesium chloride (6.5 mM), microsomal protein (0.5 mg/mL for mouse/rat, 1 mg/mL for human specimens) and the test compound at a final concentration of 1 μM. Following a short preincubation period at 37° C., the reactions are initiated by addition of 12 μL beta-nicotinamide adenine dinucleotide phosphate, reduced form (NADPH, 10 mM) and terminated by transferring an aliquot into solvent after different time points (0, 5, 15, 30, 60 min). Additionally, the NADPH-independent degradation is monitored in incubations without NADPH, terminated at the last time point by addition of acetonitrile. The quenched incubations are pelleted by centrifugation (4,000 rpm, 15 min). An aliquot of the supernatant is assayed by LC-MS/MS to quantify the concentration of parent compound in the individual samples.
In vitro intrinsic clearance (CLint,in vitro) is calculated from the time course of the disappearance of the test drug during the microsomal incubation. Each plot is fitted to the first-order elimination rate constant as C(t)=C0*exp(−ke*t), where C(t) and C0 are the concentration of unchanged test drug at incubation time t and that at preincubation and ke is the disappearance rate constant of the unchanged drug. Subsequently, CLint, in vitro (μL min^−1·amount protein) values are converted to predicted CLint,in vivo (mL min^−1·kg^−1) from incubation parameters according to the equation CLint, in vivo=CLint, in vitro×(incubation volume (mL)/amount protein (mg))×(amount protein (mg)/g liver tissue)×(liver weight/body wt.).
For better across species comparison the predicted clearance is expressed as percent of the liver blood flow [% QH] (mL min^−1·kg^−1) in the individual species. In general, high stability (corresponding to low % QH) of the compounds across species is desired.
For C[C@H](Oc1nc(-c2noc3c2CCC[C@@]32CCCc3sc(N)c(C#N)c32)nc2c1CNC[C@]21CCOC1)[C@@H]1CCCN1C [II-15], the “HLM QH” value was 63%. With C[C@H](Oc1nc(-c2onc3c2CCC[C@@]32CCCc3sc(N)c(C#N)c32)nc2c1n(C)c(=O)n2[C@@H]1CCOC1)C12CCCN1CCC2 [I-25] the “HLM QH” value was 33%. In the case of CO[C@H]1CCN(C)[C@@H]1[C@H](C)Oc1nc(-c2onc3c2CCC[C@@]32CCCc3sc(N)c(C#N)c32)nc2c1n(C)c(=O)n2[C@@H]1CCOC1 [I-23], the “HLM QH” value is reported as 77%. In the case of Cc1cc2c(O[C@@H](C)[C@@H]3CCCN3C)nc(-c3onc4c3CCC[C@@]43CCCc4sc(N)c(C#N)c43)nc2n1[C@@H]1CCOC1 [I-40], the “HLM QH” value is reported as 37%. With C[C@H](Oc1nc(-c2onc3c2CCC[C@@]32CCCc3sc(N)c(C#N)c32)nc2c1n(C)c(=O)n2[C@@]12COC[C@@H]1C2)[C@@H]1CC[C@H](C)N1C [I-45] the “HLM QH” value was 41%.

Tested on: AsPC-1 cells
Assay: AsPC-1 CTG proliferation assay (120 h) (pancreatic cancer, G12D)
Assay type: cell-based
Conditions: Homo sapiens, ASPC1
Protocol: (§1) AsPC-1 cells (ATCC CRL-1682) are dispensed into black 384-well plates, flat and clear bottom (Greiner, PNr. 781091) at a density of 500 cells per well in 60 μl RPMI ATCC-Formulation (PAN P04-18047)+10% FCS (fetal calf serum, HyClone, SH30084.03). Cells are incubated overnight at 37° C. in a humidified tissue culture incubator at 5% CO2. Compounds (10 mM stock in DMSO) are added at logarithmic dose series using the ECHO acoustic liquid handler system (Beckman Coulter), normalizing for added DMSO and including DMSO controls. All compound treatments are performed in technical duplicates. For the TO time point measurement, untreated cells are analyzed at the time of compound addition. Plates are incubated for 120 h, and cell viability is measured using CellTiter-Glo luminescent cell viability reagent (Promega product code G7570). Viability (stated as percent of control) is defined as relative luminescence units RLU of each well divided by the RLU of cells in DMSO controls. IC50 values are determined from viability measurements by non-linear regression using a four-parameter model.
(§2) IC50 values of representative compounds according to the invention measured with these assays in the indicated cell lines are presented in Table 46.
Work on C[C@H](Oc1nc(-c2noc3c2CCC[C@@]32CCCc3sc(N)c(C#N)c32)nc2c1CNC[C@]21CCOC1)[C@@H]1CCCN1C [II-15] yielded an IC50 of 179 nM. For C[C@H](Oc1nc(-c2onc3c2CCC[C@@]32CCCc3sc(N)c(C#N)c32)nc2c1n(C)c(=O)n2[C@@H]1CCOC1)C12CCCN1CCC2 [I-25], the IC50 was 1300 nM. Molecule CO[C@H]1CCN(C)[C@@H]1[C@H](C)Oc1nc(-c2onc3c2CCC[C@@]32CCCc3sc(N)c(C#N)c32)nc2c1n(C)c(=O)n2[C@@H]1CCOC1 [I-23] has an IC50 of 540 nM. For Cc1cc2c(O[C@@H](C)[C@@H]3CCCN3C)nc(-c3onc4c3CCC[C@@]43CCCc4sc(N)c(C#N)c43)nc2n1[C@@H]1CCOC1 [I-40], the IC50 was 500 nM. In the case of C[C@H](Oc1nc(-c2onc3c2CCC[C@@]32CCCc3sc(N)c(C#N)c32)nc2c1n(C)c(=O)n2[C@@]12COC[C@@H]1C2)[C@@H]1CC[C@H](C)N1C [I-45], the IC50 is reported as 286 nM.

Tested on: SK-CO-1 cells
Assay: SK-CO-1 CTG proliferation assay (120 h) (CRC, G12V)
Assay type: cell-based
Conditions: Homo sapiens
Protocol: as §1, with “SK—CO-1” for “AsPC-1”, “HTB-39)” for “CRL-1682)”, “EMEM (Sigma M5650)+10%” for “RPMI ATCC-Formulation (PAN P04-18047)+10%”
as §2
In the case of C[C@H](Oc1nc(-c2noc3c2CCC[C@@]32CCCc3sc(N)c(C#N)c32)nc2c1CNC[C@]21CCOC1)[C@@H]1CCCN1C [II-15], the IC50 is reported as 5 nM. With C[C@H](Oc1nc(-c2onc3c2CCC[C@@]32CCCc3sc(N)c(C#N)c32)nc2c1n(C)c(=O)n2[C@@H]1CCOC1)C12CCCN1CCC2 [I-25] the IC50 was 11 nM. In the case of CO[C@H]1CCN(C)[C@@H]1[C@H](C)Oc1nc(-c2onc3c2CCC[C@@]32CCCc3sc(N)c(C#N)c32)nc2c1n(C)c(=O)n2[C@@H]1CCOC1 [I-23], the IC50 is reported as 6 nM. Cc1cc2c(O[C@@H](C)[C@@H]3CCCN3C)nc(-c3onc4c3CCC[C@@]43CCCc4sc(N)c(C#N)c43)nc2n1[C@@H]1CCOC1 [I-40] gave an IC50 of 39 nM. With C[C@H](Oc1nc(-c2onc3c2CCC[C@@]32CCCc3sc(N)c(C#N)c32)nc2c1n(C)c(=O)n2[C@@]12COC[C@@H]1C2)[C@@H]1CC[C@H](C)N1C [I-45] the IC50 was 4 nM.

Tested on: NCI-H358 cells
Assay: NCI-H358 CTG proliferation assay (120 h) (NSCLC, G12C)
Assay type: cell-based
Conditions: Homo sapiens
Protocol: as §1, with “NCI-H358” for “AsPC-1”, “No. CRL-5807)” for “CRL-1682)”, “200” for “500”, “RPMI-1640” for “RPMI”, “(Gibco #A10491)+10%” for “(PAN P04-18047)+10%”, “serum).” for “serum, HyClone, SH30084.03).”
as §2
C[C@H](Oc1nc(-c2noc3c2CCC[C@@]32CCCc3sc(N)c(C#N)c32)nc2c1CNC[C@]21CCOC1)[C@@H]1CCCN1C [II-15] showed an IC50 of 1 nM. Work on C[C@H](Oc1nc(-c2onc3c2CCC[C@@]32CCCc3sc(N)c(C#N)c32)nc2c1n(C)c(=O)n2[C@@H]1CCOC1)C12CCCN1CCC2 [I-25] yielded an IC50 of 6 nM. Molecule CO[C@H]1CCN(C)[C@@H]1[C@H](C)Oc1nc(-c2onc3c2CCC[C@@]32CCCc3sc(N)c(C#N)c32)nc2c1n(C)c(=O)n2[C@@H]1CCOC1 [I-23] has an IC50 of 4 nM. Work on Cc1cc2c(O[C@@H](C)[C@@H]3CCCN3C)nc(-c3onc4c3CCC[C@@]43CCCc4sc(N)c(C#N)c43)nc2n1[C@@H]1CCOC1 [I-40] yielded an IC50 of 17 nM. In the case of C[C@H](Oc1nc(-c2onc3c2CCC[C@@]32CCCc3sc(N)c(C#N)c32)nc2c1n(C)c(=O)n2[C@@]12COC[C@@H]1C2)[C@@H]1CC[C@H](C)N1C [I-45], the IC50 is reported as 5 nM.

Tested on: NCI-H727 cells
Assay: NCI-H727 CTG proliferation assay (120 h) (lung cancer, G12V)
Assay type: cell-based
Conditions: Homo sapiens
Protocol: as §1, with “NCI-H727” for “AsPC-1”, “No. CRL-5815)” for “CRL-1682)”
as §2
For C[C@H](Oc1nc(-c2noc3c2CCC[C@@]32CCCc3sc(N)c(C#N)c32)nc2c1CNC[C@]21CCOC1)[C@@H]1CCCN1C [II-15], the IC50 was 3 nM. Molecule C[C@H](Oc1nc(-c2onc3c2CCC[C@@]32CCCc3sc(N)c(C#N)c32)nc2c1n(C)c(=O)n2[C@@H]1CCOC1)C12CCCN1CCC2 [I-25] has an IC50 of 9 nM. With CO[C@H]1CCN(C)[C@@H]1[C@H](C)Oc1nc(-c2onc3c2CCC[C@@]32CCCc3sc(N)c(C#N)c32)nc2c1n(C)c(=O)n2[C@@H]1CCOC1 [I-23] the IC50 was 3 nM. In the case of Cc1cc2c(O[C@@H](C)[C@@H]3CCCN3C)nc(-c3onc4c3CCC[C@@]43CCCc4sc(N)c(C#N)c43)nc2n1[C@@H]1CCOC1 [I-40], the IC50 is reported as 17 nM. Molecule C[C@H](Oc1nc(-c2onc3c2CCC[C@@]32CCCc3sc(N)c(C#N)c32)nc2c1n(C)c(=O)n2[C@@]12COC[C@@H]1C2)[C@@H]1CC[C@H](C)N1C [I-45] has an IC50 of 1 nM.
